According to patent US10077261B2, “Imidazolin-5-one derivative useful as FASN inhibitors for the treatment of cancer” (Janssen Pharmaceutica NV, priority 2012, dated 2018):

What was measured:
[1] = target: T1, hFASN enzyme (full length) (Homo sapiens, UniProt P49327); assay: Fatty Acid Synthase (FASN) inhibition scintillation proximity assay; assay type: biochemical; details: for inhibition at 10 µM: read-out: Human FASN % inhibition @ 10 μM, 10 μM test compound; for IC50: read-out: Human FASN pIC50 (converted)
T1 construct: 10 μL hFASN enzyme (full length, 300 ng, purified in house); made in house
T1 sequence (P49327 whole entry): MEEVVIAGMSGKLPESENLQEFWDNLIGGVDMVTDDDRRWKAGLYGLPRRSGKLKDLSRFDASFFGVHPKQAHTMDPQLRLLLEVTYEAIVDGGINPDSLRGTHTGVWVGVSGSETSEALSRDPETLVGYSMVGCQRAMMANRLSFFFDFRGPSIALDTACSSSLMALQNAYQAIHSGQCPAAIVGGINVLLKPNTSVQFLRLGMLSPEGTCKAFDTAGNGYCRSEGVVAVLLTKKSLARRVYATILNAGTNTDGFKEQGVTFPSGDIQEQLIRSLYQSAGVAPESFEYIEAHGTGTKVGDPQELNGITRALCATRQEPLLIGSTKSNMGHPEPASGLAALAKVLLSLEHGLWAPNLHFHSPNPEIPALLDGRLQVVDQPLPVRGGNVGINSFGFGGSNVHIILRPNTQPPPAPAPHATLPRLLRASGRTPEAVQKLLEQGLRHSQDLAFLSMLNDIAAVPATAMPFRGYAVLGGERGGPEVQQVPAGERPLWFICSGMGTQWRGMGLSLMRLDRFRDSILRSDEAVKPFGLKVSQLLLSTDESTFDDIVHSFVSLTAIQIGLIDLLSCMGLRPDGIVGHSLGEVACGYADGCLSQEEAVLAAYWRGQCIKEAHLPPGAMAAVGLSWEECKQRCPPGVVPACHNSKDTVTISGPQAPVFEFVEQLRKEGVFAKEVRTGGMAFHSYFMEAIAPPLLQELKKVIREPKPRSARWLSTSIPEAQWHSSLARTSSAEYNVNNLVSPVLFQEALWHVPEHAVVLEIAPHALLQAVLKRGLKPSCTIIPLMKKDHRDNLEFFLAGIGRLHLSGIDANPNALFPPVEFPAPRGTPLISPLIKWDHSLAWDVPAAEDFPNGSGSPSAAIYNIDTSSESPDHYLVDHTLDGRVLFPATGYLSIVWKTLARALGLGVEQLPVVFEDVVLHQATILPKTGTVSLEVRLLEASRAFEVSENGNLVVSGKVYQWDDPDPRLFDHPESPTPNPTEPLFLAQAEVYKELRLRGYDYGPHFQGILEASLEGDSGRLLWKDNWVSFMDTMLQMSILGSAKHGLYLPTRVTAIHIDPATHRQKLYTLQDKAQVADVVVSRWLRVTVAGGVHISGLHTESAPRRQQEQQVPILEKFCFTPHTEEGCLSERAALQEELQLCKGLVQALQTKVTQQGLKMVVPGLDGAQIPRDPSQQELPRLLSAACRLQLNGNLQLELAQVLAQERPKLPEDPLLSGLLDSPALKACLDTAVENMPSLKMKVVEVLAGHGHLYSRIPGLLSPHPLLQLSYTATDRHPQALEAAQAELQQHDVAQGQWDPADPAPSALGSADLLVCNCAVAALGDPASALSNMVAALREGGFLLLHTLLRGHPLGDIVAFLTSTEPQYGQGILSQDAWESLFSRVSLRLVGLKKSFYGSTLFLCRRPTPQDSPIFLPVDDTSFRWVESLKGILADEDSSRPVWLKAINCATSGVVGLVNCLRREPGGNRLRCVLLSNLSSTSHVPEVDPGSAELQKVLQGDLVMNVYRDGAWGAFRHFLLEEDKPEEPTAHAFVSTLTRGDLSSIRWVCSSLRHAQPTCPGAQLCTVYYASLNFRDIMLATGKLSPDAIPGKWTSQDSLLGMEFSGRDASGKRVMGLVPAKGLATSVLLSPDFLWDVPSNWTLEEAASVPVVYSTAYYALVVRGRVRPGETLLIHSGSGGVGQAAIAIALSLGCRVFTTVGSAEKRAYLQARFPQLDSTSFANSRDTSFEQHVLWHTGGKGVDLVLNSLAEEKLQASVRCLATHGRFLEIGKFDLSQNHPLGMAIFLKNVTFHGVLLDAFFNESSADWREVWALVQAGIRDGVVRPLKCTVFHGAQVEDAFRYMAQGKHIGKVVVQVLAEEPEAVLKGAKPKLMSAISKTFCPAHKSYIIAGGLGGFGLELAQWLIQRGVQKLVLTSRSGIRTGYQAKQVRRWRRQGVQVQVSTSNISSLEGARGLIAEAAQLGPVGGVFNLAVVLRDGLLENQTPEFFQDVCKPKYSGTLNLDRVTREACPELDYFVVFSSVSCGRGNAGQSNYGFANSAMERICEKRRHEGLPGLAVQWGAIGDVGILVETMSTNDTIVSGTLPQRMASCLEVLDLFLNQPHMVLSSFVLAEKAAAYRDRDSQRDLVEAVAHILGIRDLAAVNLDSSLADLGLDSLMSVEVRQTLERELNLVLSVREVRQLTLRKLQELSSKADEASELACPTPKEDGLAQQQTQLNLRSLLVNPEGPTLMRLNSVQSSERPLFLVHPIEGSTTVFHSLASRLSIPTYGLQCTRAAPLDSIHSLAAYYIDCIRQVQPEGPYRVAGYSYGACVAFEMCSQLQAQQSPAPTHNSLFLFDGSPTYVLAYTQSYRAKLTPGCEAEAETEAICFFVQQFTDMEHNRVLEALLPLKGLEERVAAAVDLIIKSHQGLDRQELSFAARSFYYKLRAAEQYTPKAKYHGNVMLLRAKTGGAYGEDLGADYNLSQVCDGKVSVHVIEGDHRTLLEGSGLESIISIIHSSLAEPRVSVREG
Summary of the method: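 Read-out relies on hydrophobic ³H-palmitate product, formed from ³H-acetyl-CoA and malonyl-CoA, binding streptavidin imaging beads, measured at 610±20 nm after at least 24 h. Full-length enzyme (300 ng) in phosphate buffer pH 7.5 with DTT; eight compound concentrations, 0.01–30 μM.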

[2] = test system: A2780 ovarian cells; assay: A2780 ovarian cell proliferation assay in lipid reduced medium, with palmitate (MTT); assay type: cell-based; details: Homo sapiens, A2780, 96 h; read-out: pIC50 A2780 Ovarian Cell, With Palmitate (converted)
Summary of the method: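 In this palmitate-supplemented format, compound dilutions (30 μM down to 0.01 μM) are added to cells in lipid-reduced serum with 25 μM palmitate, 0.2% fatty-acid-free BSA and 0.25% ethanol. After four days (96 h) MTT absorbance at 544 nm is recorded and fitted by minimum sum of squares.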

[3] = test system: A2780 ovarian cells; assay: A2780 ovarian cell proliferation assay in lipid reduced medium, without palmitate (MTT); assay type: cell-based; details: Homo sapiens, A2780, 96 h; read-out: pIC50 A2780 Ovarian Cell, Without Palmitate (converted)
[4] = target: Fatty Acid Synthase Keto-reductase Domain (FASN KR) (Homo sapiens, UniProt P49327); assay: Fatty Acid Synthase keto-reductase domain (FASN KR) inhibition, NADPH oxidation at 340 nm
Fatty Acid Synthase Keto-reductase Domain (FASN KR), sequence (P49327 whole entry, the tested form may be a part): as the sequence (P49327 whole entry) above
Protocol: After 20 minutes incubation at room temperature the plate was measured again (T2).
The decrease in absorbance was calculated as (Absorbance before incubation T1)−(Absorbance following incubation T2).
A plot of Controlmin versus test compound concentration was fitted to a 4-parameter logistic curve using a non-linear least squares regression method.

SMILES | inhibition at 10 µM [1] [%] | IC50 [1] [µM] | IC50 [2] [µM] | IC50 [3] [µM] | IC50 [4] [µM]
N#Cc1ccc(-c2ccc(C3=NC4(CCCC4)C(=O)N3C[C@@H]3CCN(C(=O)C4CC4)C3)cc2)cc1 [compound 1, 4′-(3-{[(3R)-1-(Cyclopropylcarbonyl)pyrrolidin-3-yl]methyl}-4-oxo-1,3-diazaspiro[4.4]non-1-en-2-yl)biphenyl-4-carbonitrile] | 93 | 0.575 | > 10 | 1.12 | 0.759
Cc1cc(Cl)nc2cc(-c3ccc(C4=NC5(CC5)C(=O)N4CC4CN(C(=O)C5CC5)C4)cc3)ccc12 [compound 559, 5-[4-(2-Chloro-4-methylquinolin-7-yl)phenyl]-6-{[1-(cyclopropylcarbonyl)azetidin-3-yl]methyl}-4,6-diazaspiro[2.4]hept-4-en-7-one] | 59 | 6.03 | > 10 | 9.33 | 
O=C(C1CC1)N1CC(CN2C(=O)C3(CC3)N=C2c2ccc(-c3ccc4nn(CC5CC5)cc4c3)cc2F)C1 [compound 524, 6-{[1-(Cyclopropylcarbonyl)azetidin-3-yl]methyl}-5-{4-[2-(cyclopropylmethyl)-2H-indazol-5-yl]-2-fluorophenyl}-4,6-diazaspiro[2.4]hept-4-en-7-one] | 73 | 2.09 | > 10 | 4.9 | 
O=C(C1CC1)N1CC(CN2C(=O)C3(CC3)N=C2c2ccc(-c3cc(Cl)c4cn[nH]c4c3)cc2F)C1 [compound 592, 5-[4-(4-Chloro-1H-indazol-6-yl)-2-fluorophenyl]-6-{[1-(cyclopropylcarbonyl)azetidin-3-yl]methyl}-4,6-diazaspiro[2.4]hept-4-en-7-one] | 70 | 2.95 | > 10 | 5.25 | 
Cc1cc(-c2ccc3c(cnn3C)c2)ccc1C1=NC2(CC2)C(=O)N1CC1CN(C(=O)C2(N)CC2)C1 [compound 564, 6-({1-[(1-Aminocyclopropyl)carbonyl]azetidin-3-yl}methyl)-5-[2-methyl-4-(1-methyl-1H-indazol-5-yl)phenyl]-4,6-diazaspiro[2.4]hept-4-en-7-one] | 97 | 0.263 | > 10 | 0.525 | 
Cc1ccc2ccc(-c3ccc(C4=NC5(CC5)C(=O)N4CC4CN(C(=O)C5CC5)C4)c(F)c3)cc2n1 [compound 574, 6-{[1-(Cyclopropylcarbonyl)azetidin-3-yl]methyl}-5-[2-fluoro-4-(2-methylquinolin-7-yl)phenyl]-4,6-diazaspiro[2.4]hept-4-en-7-one] | 82 | 0.813 | 5.75 | 0.871 | 
Cc1cc(-c2ccc3nn(C)c(CO)c3c2)ccc1C1=NC2(CC2)C(=O)N1CC1CN(C(=O)C2CC2)C1 [compound 587, 6-{[1-(Cyclopropylcarbonyl)azetidin-3-yl]methyl}-5-{4-[3-(hydroxymethyl)-2-methyl-2H-indazol-5-yl]-2-methylphenyl}-4,6-diazaspiro[2.4]hept-4-en-7-one] | 70 | 3.31 | > 10 | ~8.51 | 
CC1(C(=O)N2CC[C@@H](CN3C(=O)C4(CC4)N=C3c3ccc(-c4ccc5cc(F)ccc5c4)cc3F)C2)CC1 [compound 363, (R)-5-(2-fluoro-4-(6-fluoronaphthalen-2-yl)phenyl)-6-((1-(1-methylcyclopropancecarbonyl)pyrrolidin-3-yl)methyl)-4,6-diazaspiro[2.4]hept-4-en-7-one] | 94 | 0.0398 | ~1.51 | ~0.00646 | 
CC(C)n1ccc2cc(-c3ccc(C4=NC5(CC5)C(=O)N4CC4CN(C(=O)C5CC5)C4)c(F)c3)ccc21 [compound 525, 6-{[1-(Cyclopropylcarbonyl)azetidin-3-yl]methyl}-5-{2-fluoro-4-[1-(1-methylethyl)-1H-indol-5-yl]phenyl}-4,6-diazaspiro[2.4]hept-4-en-7-one] | 84 | 1.05 | > 10 | 4.9 | 
O=C(C1CC1)N1CC[C@@H](CN2C(=O)C3(CCCC3)N=C2c2ccc(-c3ccc4occc4c3)cc2F)C1 [compound 120, 2-[4-(1-Benzofuran-5-yl)-2-fluorophenyl]-3-{[(3R)-1-(cyclopropylcarbonyl)pyrrolidin-3-yl]methyl}-1,3-diazaspiro[4.4]non-1-en-4-one] | 116 | 0.0389 | 5.01 | ~0.759 | 
Cc1cc(-c2ccc3c(cnn3C)c2)ccc1C1=NC2(CC2)C(=O)N1CC1CN(C(=O)c2nccs2)C1 [compound 518, 5-[2-Methyl-4-(1-methyl-1H-indazol-5-yl)phenyl]-6-{[1-(1,3-thiazol-2-ylcarbonyl)azetidin-3-yl]methyl}-4,6-diazaspiro[2.4]hept-4-en-7-one] | 62 | ~4.68 | ~4.07 | ~3.98 | 
CC1(C(=O)N2CC[C@@H](CN3C(=O)C4(CCCC4)N=C3c3ccc(-c4ccc5occc5c4)cc3)C2)CC1 [compound 116, (R)-2-(4-(Benzofuran-5-yl)phenyl)-3-((1-(1-methylcyclopropanecarbonyl)pyrrolidin-3-yl)methyl)-1,3-diazaspiro[4.4]non-1-en-4-one] | 121 | 0.0282 | ~3.02 | 0.0355 | 

Continued, values first:

inhibition at 10 µM [1] [%] | IC50 [1] [µM] | IC50 [2] [µM] | IC50 [3] [µM] | IC50 [4] [µM] | SMILES
63 | 4.17 | > 10 | > 10 |  | COC(=O)N1CC[C@@H](CN2C(=O)C3(CCOC3)N=C2c2ccc(-c3ccc4cccnc4c3)cc2)C1 (stereo partly drawn) [compound 683, Methyl (3S)-{[4-oxo-2-(4-quinolin-7-ylphenyl)-7-oxa-1,3-diazaspiro[4.4]non-1-en-3-yl]methyl}pyrrolidin-1-carboxylate]
13 | > 10 | > 10 | > 10 |  | Cc1nnc2ccc(-c3ccc(C4=NC5(CC5)C(=O)N4CC4CN(C(=O)C5CC5)C4)cc3)cn12 [compound 793, 6-((1-(cyclopropanecarbonyl)azetidin-3-yl)methyl)-5-(4-(3-methyl-[1,2,4]triazolo[4,3-a]pyridin-6-yl)phenyl)-4,6-diazaspiro[2.4]hept-4-en-7-one]
71 | 3.02 | > 10 | 4.17 |  | Cn1c(-c2ccc(C3=NC4(CC4)C(=O)N3CC3CN(C(=O)C4CC4)C3)c(F)c2)nc2ccc(F)cc21 [compound 653, 6-{[1-(Cyclopropylcarbonyl)azetidin-3-yl]methyl}-5-[2-fluoro-4-(6-fluoro-1-methyl-1H-benzimidazol-2-yl)phenyl]-4,6-diazaspiro[2.4]hept-4-en-7-one]
26 | > 10 | > 10 | > 10 |  | O=C(C1CC1)N1CC(CN2C(=O)C3(CC3)N=C2c2ccc(-c3ccc4c(cnn4C4COC4)c3)cc2F)C1 [compound 789, 6-((1-(cyclopropanecarbonyl)azetidin-3-yl)methyl)-5-(2-fluoro-4-(1-(oxetan-3-yl)-1H-indazol-5-yl)phenyl)-4,6-diazaspiro[2.4]hept-4-en-7-one]
24 | > 10 | ~6.17 | 3.89 |  | Cc1cc(-c2ccc(-c3ccnn3CC(C)C)cc2)ccc1C1=NC2(CC2)C(=O)N1CC1CN(C(=O)C2(C)CC2)C1 [compound 785]
6 | > 10 | > 10 | > 10 |  | CS(=O)(=O)N1CC(CN2C(=O)C3(CCOC3)N=C2c2ccc(-c3ccc4occc4c3)cc2)C1 (stereo not shown) [compound 898, 2-(4-(benzofuran-5-yl)phenyl)-3-((1-(methylsulfonyl)azetidin-3-yl)methyl)-7-oxa-1,3-diazaspiro[4.4]non-1-en-4-one]
84 | 1.35 | > 10 | 4.9 |  | Cc1cc(-c2cccc(SC3CC3)c2)ccc1C1=NC2(CC2)C(=O)N1CC1CN(C(=O)C2CC2)C1 [compound 650, 6-{[1-(Cyclopropylcarbonyl)azetidin-3-yl]methyl}-5-[3′-(cyclopropylsulfanyl)-3-methylbiphenyl-4-yl]-4,6-diazaspiro[2.4]hept-4-en-7-one]
31 | > 10 | 5.89 | 6.76 |  | Cc1cc(-c2ccc(-c3ccnn3CC3CC3)cc2)ccc1C1=NC2(CC2)C(=O)N1CC1CN(C(=O)C2(C)CC2)C1 [compound 786, 5-(4′-(1-(cyclopropylmethyl)-1H-pyrazol-5-yl)-3-methyl-[1,1′-biphenyl]-4-yl)-6-((1-(1-methylcyclopeopanecarbonyl)azetidin-3-yl)methyl)-4,6-diazaspiro[2.4]hept-4-en-7-one]
34 | > 10 | > 10 | 9.55 |  | CS(=O)(=O)c1cccc(-c2ccc(C3=NC4(CC4)C(=O)N3CC3CN(C(=O)C4CC4)C3)c(F)c2)c1 [compound 777, 6-((1-(cyclopropanecarbonyl)azetidin-3-yl)methyl)-5-(3-fluoro-3′-(methylsulfonyl)-[1,1′-biphenyl]-4-yl)-4,6-diazaspiro[2.4]hept-4-en-7-one]
